In publication PMC5679629, “Flavin-containing monooxygenase 3 (FMO3) role in busulphan metabolic pathway” (PLoS ONE, 2017):

Assays:
[1] = set-up: method as in PMID 2886318; conditions: rats, cited from earlier work
FMO3 mRNA = experiment: Gene expression in patients conditioned with busulphan (gene array, qRT-PCR); type: in vivo, human; conditions: oral Bu 2mg/kg b.i.d. for 4 days, normalized to GAPDH
Method: (§1) FMO3 mRNA expression was studied in twelve patients undergoing HSCT at the Center for Allogeneic Stem Cell Transplantation (CAST), Karolinska University Hospital-Huddinge, Sweden. The study was approved by the ethical committee of Karolinska Institutet (616/03) in accordance with the Helsinki Declaration of 1975 and with informed consent from each patient or their guardian. All patients were treated with oral Bu, administered at a dose of 2mg/kg (8μmol/kg) b.i.d. for 4 days followed by an i.v. infusion of cyclophosphamide (Cy) 60mg/kg/day (230μmol/kg/day) once daily for 2 days before the stem cell infusion.
(§2) Blood samples for mRNA quantification were collected in PAXgene^TM blood RNA tubes (BD, Stockholm, Sweden) prior to the start of Bu treatment and after the last Bu dose.
(§3) RNA was extracted from the mononuclear cells using QuickPreps^TM Total RNA Extraction Kit (GE Life Sciences, Uppsala, Sweden). RNA (1μg) was reverse transcribed to complementary DNA (cDNA) using the TaqMan^TM Kit (Applied Biosystems, Roche, NJ, USA).
Purified mRNA was subjected to analysis of global gene expression by using NimbleGen microarrays (Roche Diagnostics Scandinavia, Bromma, Sweden). Data were analyzed by Genespring GX (Agilent, CA, USA). Quantile normalization was used on the probe expression data generated using the Robust Multichip Average algorithm. […]

GSTA1 mRNA = experiment: Gene expression in patients conditioned with busulphan (gene array); type: in vivo, human; conditions: oral Bu 2mg/kg b.i.d. for 4 days
Method: as §1, §2, §3
Purified mRNA was subjected to analysis of global gene expression by using NimbleGen microarrays (Roche Diagnostics Scandinavia, Bromma, Sweden). Data were analyzed by Genespring GX (Agilent, CA, USA). Quantile normalization was used on the probe expression data generated using the Robust Multichip Average algorithm.

[2] = Busulphan and THT plasma kinetics in a patient treated concomitantly with voriconazole; type: in vivo, human; conditions: Bu 2mg/kg b.i.d. with concomitant voriconazole
Method: In order to confirm the contribution of FMO3 to human Bu kinetics, blood samples were collected (routinely) from a patient who underwent stem cell transplantation and was conditioned according to the hospital transplantation protocol i.e. high dose of Bu (2mg/kg b.i.d.) for four days followed with two days of cyclophosphamide (60mg/kg). […] Voriconazole was administered, according to the hospital clinical protocol, for the treatment of an acute fungal infection.
Samples were taken for therapeutic drug monitoring (TDM) at several time points after the first, third and fifth doses. Blood was collected into EDTA vacutainer tubes, plasma was separated by centrifugation at 1200 g and stored at -20°C until analysis of Bu and THT [18].

[3] = cited from earlier work
in vivo = conditions: male, C57BL/6N, mouse, plasma, ip, 25 mg/kg
Method: (§4) Male C57BL/6N mice (6–8 weeks old) were purchased from Charles River (Cologne, Germany). The mice were allowed to acclimatize to the surroundings for 2 weeks with a 12h dark/12h light cycle and randomized for treatment. Standard laboratory chow and water ad libitum was introduced.
(§5) To study Bu and THT kinetics, Bu (Sigma-Aldrich, Steinheim, Germany) was administered i.p. (25mg/kg or 100μmol/kg) as a 2mM solution in DMSO (Sigma-Aldrich, Stockholm, Sweden) [21]. THT was also prepared as a 2mM solution in DMSO and the dose given was equimolar to the Bu treatment (i.e. 100μmol/kg or 8.8 mg/kg). Upon injection, samples were diluted with physiological NaCl solution to a final DMSO concentration of 10% in the dosing solution. At the appropriate time points (10min, 30min, 1h, 2h, 4h, 6h and 8h), mice (three mice at each time point) were anesthetized using 2% isoflurane and the blood samples were collected by heart puncture. Mice were euthanized by cervical dislocation. Plasma was separated and stored at -20°C.
(§6) PTU (3mg/kg) was dissolved in DMSO and diluted with physiological NaCl solution and then injected into the mice once daily followed by Bu or THT injections on the 4th day. The mice were euthanized and plasma samples prepared as in the previous experiment.
(§7) To detect the effect of high THT concentrations on Bu metabolism, a third group of mice was injected with both Bu (100μmol/kg) and a high dose of THT (17.6mg/kg or 200μmol/kg) and samples prepared as described previously. All experiments including negative controls (mice injected with 10% DMSO in NaCl solution) and mice injected with PTU alone were performed in triplicates.
(§8) To quantify Bu, samples were extracted according to the method reported previously by Hassan et al. [24]. Briefly, 500 μL of plasma were diluted with 500 μL of water. Fifty microliters of the internal standard (1,5-bis(methanesulfonoxy)pentane; 38.5 μM) were added, followed by the addition of 1 mL of sodium iodide (8M, Merck, Darmstadt, Germany) and 400μL of n-heptane (Merck, Darmstadt, Germany). The tubes were placed under magnetic stirring in a water bath (70°C) for 45 min. During the reaction, busulphan and 1,5-bis(methanesulfonoxy)pentane were converted to 1,4-diiodobutane and 1,5-diiodopentane respectively and subsequently extracted with n-heptane [25]. The conversion of busulphan and 1,5-bis(methanesulfonoxy)pentane to 1,4-diiodobutane and 1,5-diiodopentane was over 90% [24]. The organic phase was analyzed by GC-MS [18]. THT was quantified as described previously and the method was validated for use with mouse plasma before measuring both Bu and THT [19, 20].
(§9) Kinetic parameters from in vivo studies were estimated using WinNonLin software (standard edition, version 2.0), while Microsoft Excel and SigmaPlot software (version 12.5, Systat software, Inc.) were utilized for in vitro kinetics.

[4] = Busulphan kinetics in mice (alone, after PTU pretreatment, or with high-dose THT); conditions: for AUC / Cmax: male, C57BL/6N, mouse, plasma, ip, 25 mg/kg, mean
Method: as §4, §5, §6, §7, §8, §9

[5] = within 72 hours of administration
[6] = Group 1: mice, Bu 25mg/kg i.p. alone
[7] = Group 2: mice, Bu 25mg/kg i.p. after PTU 3mg/kg i.p. once daily for 3 days

SMILES: O=S1(=O)CCC(O)C1 (stereo not shown) [3-OH-sulfolane, 3-hydroxysulfolane]
- share of Bu excreted in urine as this metabolite [1, 5]: 39%

SMILES: CS(=O)(=O)OCCCCOS(C)(=O)=O [Bu, Busulphan]
- FMO3 mRNA after Bu conditioning versus before (FMO3 mRNA): significant up-regulation
- GSTA1 mRNA after Bu conditioning versus before (GSTA1 mRNA): significantly up-regulated
- Bu levels versus same dose of Bu administered alone [2]: higher than expected
- Bu clearance versus a patient treated with Bu alone ([2]; P<0.05): slower
- Bu excreted in the urine as unchanged drug [1]: 2%
- Bu excreted in the form of its subsequent metabolites [1, 5]: more than 70%
- decrease of Bu clearance ([3]; child with AML, after two days concomitant metronidazole): 46%
- daily AUC in excess of the predicted ([3]; child with AML, concomitant metronidazole): 86%
- mean Bu trough levels with concomitant metronidazole ([3]; patients undergoing HSCT): two-fold higher
- AUC (in vivo): 65.5 µM·h
- Cmax (in vivo): 16.5 µM
- AUC [4, 6]: 44.3 µM·h
- AUC [4, 7]: 65.3 µM·h
- Cmax [4, 6]: 7.47 µM
- Cmax [4, 7]: 25.5 µM
- Bu plasma concentrations and Bu exposure (AUC) versus Bu alone ([4]; mice treated with FMO3 inhibitor PTU before Bu administration): significantly (P<0.05, t-test) higher
- levels of Bu versus Bu alone ([4]; mice, concomitant administration of THT and Bu): higher levels

SMILES: [O-][S+]1CCCC1 [THT 1-oxide, tetrahydrothiophene 1-oxide]
- share of Bu excreted in urine as this metabolite [1, 5]: 20%
